The source of these data is patent US7192924B2, “Corticotropin releasing factor 2 receptor agonists” (priority 2002, dated 2007).

Test [1] addresses T1, CRF2R (Homo sapiens, UniProt Q13324).
T1 sequence (Q13324 1-411): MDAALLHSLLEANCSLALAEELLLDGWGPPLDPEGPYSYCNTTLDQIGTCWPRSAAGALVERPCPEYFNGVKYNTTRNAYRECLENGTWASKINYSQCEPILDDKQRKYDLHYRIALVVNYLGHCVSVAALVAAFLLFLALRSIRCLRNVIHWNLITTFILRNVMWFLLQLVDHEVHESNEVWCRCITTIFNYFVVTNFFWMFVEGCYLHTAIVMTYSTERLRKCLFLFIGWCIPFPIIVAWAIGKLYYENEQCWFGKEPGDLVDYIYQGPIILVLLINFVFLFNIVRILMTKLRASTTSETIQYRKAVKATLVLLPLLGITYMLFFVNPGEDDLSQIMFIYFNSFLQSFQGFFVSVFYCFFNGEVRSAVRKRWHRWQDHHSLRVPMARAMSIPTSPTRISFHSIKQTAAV
Put plainly: CRF2R agonist activity (EC50, Emax), called comparative CRF binding. The class given is cell-based. Conditions: read-out: CRF2R EC50. The gist of the method: (§1)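 Cells expressing only CRF1R or only CRF2R (or recombinant receptor) are contacted with peptide or vehicle control. Receptor activation is read as cAMP induction, measured in cell lysates or via a cAMP-responsive-element reporter gene such as luciferase.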

Test [2] has as its target T2, CRF1R (Homo sapiens, UniProt P34998).
T2 sequence (P34998 24-415): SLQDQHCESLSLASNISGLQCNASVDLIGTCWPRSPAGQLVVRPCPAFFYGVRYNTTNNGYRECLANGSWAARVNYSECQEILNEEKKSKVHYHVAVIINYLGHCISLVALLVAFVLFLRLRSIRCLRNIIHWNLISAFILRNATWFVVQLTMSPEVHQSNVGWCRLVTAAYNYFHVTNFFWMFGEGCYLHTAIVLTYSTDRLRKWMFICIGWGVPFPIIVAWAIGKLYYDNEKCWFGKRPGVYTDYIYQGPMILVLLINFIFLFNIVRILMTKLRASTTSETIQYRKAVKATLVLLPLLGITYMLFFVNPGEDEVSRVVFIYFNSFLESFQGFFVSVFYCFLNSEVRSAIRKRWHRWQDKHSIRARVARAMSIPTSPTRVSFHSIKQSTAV
Put plainly: CRF1R agonist activity (EC50, Emax), called comparative CRF binding. The format is cell-based. Particulars: read-out: CRF1R EC50. A digest of the protocol: as §1

pEC50: −log10 of the molar value. Ends that are not written are not given here. Peptide text beside a SMILES is read from it. Bounds are passed on as bounds.

On to `CC[C@H](C)[C@H](N)C(=O)N[C@H](C(=O)N[C@@H](CC(C)C)C(=O)N[C@@H](CO)C(=O)N[C@@H](CC(C)C)C(=O)N[C@@H](CC(=O)O)C(=O)N[C@H](C(=O)N1CCC[C@H]1C(=O)N[C@H](C(=O)N[C@@H](Cc1c[nH]cn1)C(=O)N[C@@H](CC(C)C)C(=O)N[C@@H](CC(C)C)C(=O)N[C@@H](CCC(N)=O)C(=O)N[C@H](C(=O)N[C@@H](CC(C)C)C(=O)N[C@@H](CC(C)C)C(=O)N[C@@H](CCC(=O)O)C(=O)N[C@@H](CCC(N)=O)C(=O)N[C@@H](C)C(=O)N[C@@H](CCCNC(=N)N)C(=O)N[C@@H](C)C(=O)N[C@@H](CCCNC(=N)N)C(=O)N[C@@H](C)C(=O)N[C@@H](C)C(=O)N[C@@H](CCCNC(=N)N)C(=O)N[C@@H](CCC(=O)O)C(=O)N[C@@H](CCC(N)=O)C(=O)N[C@@H](C)C(=O)N[C@H](C(=O)N[C@H](C(=O)N[C@@H](CC(N)=O)C(=O)N[C@@H](C)C(=O)N[C@@H](CCCNC(=N)N)C(=O)N[C@H](C(=O)N[C@@H](CC(C)C)C(=O)N[C@@H](C)C(=O)N[C@@H](CCCNC(=N)N)C(=O)N[C@H](C(N)=O)C(C)C)[C@@H](C)CC)[C@@H](C)O)[C@@H](C)O)[C@@H](C)CC)[C@@H](C)CC)C(C)C)C(C)C` [compound 371] (H-IVLSLDVPIHLLQILLEQARARAAREQATTNARILARV-NH2; N-terminus assumed), for which the pEC50 in test [1] is 8.18; in test [2], no more than 6.00.
In the same order, the values of `CC[C@H](C)[C@H](N)C(=O)N[C@H](C(=O)N[C@@H](CC(C)C)C(=O)N[C@@H](CO)C(=O)N[C@@H](CC(C)C)C(=O)N[C@@H](CC(=O)O)C(=O)N[C@H](C(=O)N[C@H](C(=O)N[C@H](C(=O)NCC(=O)N[C@@H](CC(C)C)C(=O)N[C@@H](CC(C)C)C(=O)N[C@@H](CCC(N)=O)C(=O)N[C@H](C(=O)N[C@@H](CC(C)C)C(=O)N[C@@H](CC(C)C)C(=O)N[C@@H](CCC(=O)O)C(=O)N[C@@H](CCC(N)=O)C(=O)N[C@@H](C)C(=O)N[C@@H](CCCNC(=N)N)C(=O)N[C@@H](C)C(=O)N[C@@H](CCCNC(=N)N)C(=O)N[C@@H](C)C(=O)N[C@@H](C)C(=O)N[C@@H](CCCNC(=N)N)C(=O)N[C@@H](CCC(=O)O)C(=O)N[C@@H](CCC(N)=O)C(=O)N[C@@H](C)C(=O)N[C@H](C(=O)N[C@H](C(=O)N[C@@H](CC(N)=O)C(=O)N[C@@H](C)C(=O)N[C@@H](CCCNC(=N)N)C(=O)N[C@H](C(=O)N[C@@H](CC(C)C)C(=O)N[C@@H](C)C(=O)N[C@@H](CCCNC(=N)N)C(=O)N[C@H](C(N)=O)C(C)C)[C@@H](C)CC)[C@@H](C)O)[C@@H](C)O)[C@@H](C)CC)[C@@H](C)CC)C(C)C)C(C)C)C(C)C` [compound 214] (H-IVLSLDVVIGLLQILLEQARARAAREQATTNARILARV-NH2; N-terminus assumed) are 7.13 and no more than 7.00.
In the case of “NDDPPISIDLPFYLLRNMIEMARIENEREQAGLNAKYLAEV-NH2 [compound 261]”, the negative logarithm of the EC50 (pEC50) in test [1] was no more than 7.00; in test [2], 6.56.

Broadly, the pEC50 is the EC50 on a negative log10 scale, so that one unit is a factor of ten.
